Test [1] has as its target cAMP-dependent protein kinase catalytic subunit PRKX (Homo sapiens, UniProt P51817). The test is classed as functional.
Test [2] has as its target cAMP-dependent protein kinase catalytic subunit alpha (Homo sapiens, UniProt P17612). It counts as functional.
Test [3] deals with Calcium/calmodulin-dependent protein kinase type II subunit alpha (Homo sapiens, UniProt Q9UQM7). The test can be described thus: Navigating the Kinome. Panel member name: CAMK2A. It counts as functional.
Another test concerns the target LIM domain kinase 1 (Homo sapiens, UniProt P53667). The test can be described thus: Navigating the Kinome. Panel member name: LIMK1. It counts as functional.
For test [4], the target named is Serine/threonine-protein kinase pim-3 (Homo sapiens, UniProt Q86V86). It counts as functional.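 Note: value obtained as one member of a broad kinase panel profiling effort.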
In test [5] the target is Tyrosine-protein kinase Srms (Homo sapiens, UniProt Q9H3Y6). The test is classed as functional.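 Note: SRMS measured as one member of a kinome-wide kinase profiling panel.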
The target in test [6] is Protein kinase C iota type (Homo sapiens, UniProt P41743). The test is classed as functional.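 Note: measured within a kinome-wide kinase panel, PRKCI as panel member.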
For test [7], the target named is Serine/threonine-protein kinase Chk2 (Homo sapiens, UniProt O96017). The test is classed as functional.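 Note: CHEK2 entry within a kinome-wide screening panel.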
For test [8], the target named is Proto-oncogene tyrosine-protein kinase ROS (Homo sapiens, UniProt P08922). It counts as functional.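 Note: ROS1 tested as one member of a kinome-wide kinase panel.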
In test [9] the target is Vascular endothelial growth factor receptor 3 (Homo sapiens, UniProt P35916). The test is classed as functional.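 Note: value from a kinome-wide profiling panel, with FLT4 as the panel member.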
The target of test [10] is Tyrosine-protein kinase SYK (Homo sapiens, UniProt P43405). The test is classed as functional.
The target of test [11] is Serine/threonine-protein kinase BRSK1 (Homo sapiens, UniProt Q8TDC3). It counts as functional.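 Note: measured within a kinome-wide kinase panel, with the target listed as KIAA1811.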
Test [12] deals with Serine/threonine-protein kinase DCLK1 (Homo sapiens, UniProt O15075). The test is classed as functional.
The target of test [13] is Protein kinase C gamma type (Homo sapiens, UniProt P05129). The test is classed as functional.
In test [14] the target is Mitogen-activated protein kinase 1 (Homo sapiens, UniProt P28482). The test is classed as functional.
For test [15], the target named is Maternal embryonic leucine zipper kinase (Homo sapiens, UniProt Q14680). The test is classed as functional.
For test [16], the target named is Calcium/calmodulin-dependent protein kinase type 1 (Homo sapiens, UniProt Q14012). The test is classed as functional.
Test [17] deals with Serine/threonine-protein kinase PAK 1 (Homo sapiens, UniProt Q13153). The test is classed as functional.
In test [18] the target is Cyclin-dependent kinase 1 (Homo sapiens, UniProt P06493). The test is classed as functional.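 Note: Kinome-wide panel profiling, with the target listed as panel member CDC2.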
The target in test [19] is Tyrosine-protein kinase receptor UFO (Homo sapiens, UniProt P30530). It counts as functional.
The target of test [20] is MAP kinase-activated protein kinase 5 (Homo sapiens, UniProt Q8IW41). The test is classed as functional.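 Note: measured as one member of a kinome panel.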
In test [21] the target is Mast/stem cell growth factor receptor Kit (Homo sapiens, UniProt P10721). It counts as functional.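 Note: KIT entry within a kinase panel assay.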
Test [22] addresses Serine/threonine-protein kinase PLK4 (Homo sapiens, UniProt O00444). The test is classed as functional.
Test [23] has as its target Eukaryotic elongation factor 2 kinase (Homo sapiens, UniProt O00418). It counts as functional.
The target of test [24] is Serine/threonine-protein kinase 3 (Homo sapiens, UniProt Q13188). It counts as functional.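 Note: measured as one member of a kinome-wide kinase panel.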
In test [25] the target is Phosphorylase b kinase gamma catalytic chain, liver/testis isoform (Homo sapiens, UniProt P15735). The test is classed as functional.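 Note: PHKG2 measured as one member of a kinome-wide kinase panel.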
For test [26], the target named is Tyrosine-protein kinase FRK (Homo sapiens, UniProt P42685). The test is classed as functional.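 Note: FRK tested as one member of a kinome panel.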
In test [27] the target is Cell division cycle 7-related protein kinase (Homo sapiens, UniProt O00311). The test is classed as functional.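 Note: value obtained from a kinome-wide kinase panel.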
For test [28], the target named is Mitogen-activated protein kinase kinase kinase kinase 5 (Homo sapiens, UniProt Q9Y4K4). The test is classed as functional.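 Note: measured as one member of a kinome-spanning kinase panel.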
In test [29] the target is MAP kinase-activated protein kinase 2 (Homo sapiens, UniProt P49137). The test is classed as functional.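 Note: measured as one member of a kinome-wide kinase panel.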
Test [30] has as its target T1, Mannose-6-phosphate isomerase (Homo sapiens, UniProt P34949).
T1 sequence (P34949 whole entry): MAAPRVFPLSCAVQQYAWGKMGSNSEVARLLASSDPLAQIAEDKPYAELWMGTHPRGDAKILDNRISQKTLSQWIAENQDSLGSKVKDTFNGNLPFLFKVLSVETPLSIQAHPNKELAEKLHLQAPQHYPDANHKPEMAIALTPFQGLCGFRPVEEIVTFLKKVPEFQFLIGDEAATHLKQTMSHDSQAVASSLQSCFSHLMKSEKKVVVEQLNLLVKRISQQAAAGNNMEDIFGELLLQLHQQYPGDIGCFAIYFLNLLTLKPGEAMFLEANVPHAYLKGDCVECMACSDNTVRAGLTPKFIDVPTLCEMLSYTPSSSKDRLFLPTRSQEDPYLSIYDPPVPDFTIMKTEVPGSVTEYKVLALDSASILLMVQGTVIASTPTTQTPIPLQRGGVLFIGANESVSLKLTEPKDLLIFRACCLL
The test can be described thus: inhibitors of human PMI, primary screen, biochemical, fluorescence intensity, coupled assay (AID 1209).

Each structure is given as a SMILES string. Active and inactive are the calls of the source.

Sequence of Tyrosine-protein kinase FRK (P42685 whole entry): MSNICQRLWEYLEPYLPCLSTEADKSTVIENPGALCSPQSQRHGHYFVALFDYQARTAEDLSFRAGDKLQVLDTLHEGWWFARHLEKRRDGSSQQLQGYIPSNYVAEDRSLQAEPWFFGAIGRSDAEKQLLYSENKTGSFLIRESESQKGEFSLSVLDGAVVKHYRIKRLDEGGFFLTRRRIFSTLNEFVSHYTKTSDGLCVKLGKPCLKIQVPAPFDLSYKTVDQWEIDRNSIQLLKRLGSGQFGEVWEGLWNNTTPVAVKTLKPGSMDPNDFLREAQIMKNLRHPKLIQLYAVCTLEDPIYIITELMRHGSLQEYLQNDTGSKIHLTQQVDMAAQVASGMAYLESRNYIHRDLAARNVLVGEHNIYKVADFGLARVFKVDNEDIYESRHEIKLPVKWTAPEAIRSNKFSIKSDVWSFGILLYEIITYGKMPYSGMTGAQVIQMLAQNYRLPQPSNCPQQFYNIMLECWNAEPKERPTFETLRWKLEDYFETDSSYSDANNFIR
Sequence of MAP kinase-activated protein kinase 2 (P49137 whole entry): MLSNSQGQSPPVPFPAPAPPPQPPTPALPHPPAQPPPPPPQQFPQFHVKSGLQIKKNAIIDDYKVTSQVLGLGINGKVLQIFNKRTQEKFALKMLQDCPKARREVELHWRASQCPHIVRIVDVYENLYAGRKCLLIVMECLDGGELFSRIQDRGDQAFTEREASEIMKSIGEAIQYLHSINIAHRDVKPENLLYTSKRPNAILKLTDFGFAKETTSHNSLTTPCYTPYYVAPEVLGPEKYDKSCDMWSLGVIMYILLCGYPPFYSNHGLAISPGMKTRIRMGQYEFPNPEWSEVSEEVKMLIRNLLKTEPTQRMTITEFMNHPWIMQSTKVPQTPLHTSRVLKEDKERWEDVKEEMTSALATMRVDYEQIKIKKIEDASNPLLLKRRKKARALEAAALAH
Sequence of Proto-oncogene tyrosine-protein kinase ROS (P08922 whole entry): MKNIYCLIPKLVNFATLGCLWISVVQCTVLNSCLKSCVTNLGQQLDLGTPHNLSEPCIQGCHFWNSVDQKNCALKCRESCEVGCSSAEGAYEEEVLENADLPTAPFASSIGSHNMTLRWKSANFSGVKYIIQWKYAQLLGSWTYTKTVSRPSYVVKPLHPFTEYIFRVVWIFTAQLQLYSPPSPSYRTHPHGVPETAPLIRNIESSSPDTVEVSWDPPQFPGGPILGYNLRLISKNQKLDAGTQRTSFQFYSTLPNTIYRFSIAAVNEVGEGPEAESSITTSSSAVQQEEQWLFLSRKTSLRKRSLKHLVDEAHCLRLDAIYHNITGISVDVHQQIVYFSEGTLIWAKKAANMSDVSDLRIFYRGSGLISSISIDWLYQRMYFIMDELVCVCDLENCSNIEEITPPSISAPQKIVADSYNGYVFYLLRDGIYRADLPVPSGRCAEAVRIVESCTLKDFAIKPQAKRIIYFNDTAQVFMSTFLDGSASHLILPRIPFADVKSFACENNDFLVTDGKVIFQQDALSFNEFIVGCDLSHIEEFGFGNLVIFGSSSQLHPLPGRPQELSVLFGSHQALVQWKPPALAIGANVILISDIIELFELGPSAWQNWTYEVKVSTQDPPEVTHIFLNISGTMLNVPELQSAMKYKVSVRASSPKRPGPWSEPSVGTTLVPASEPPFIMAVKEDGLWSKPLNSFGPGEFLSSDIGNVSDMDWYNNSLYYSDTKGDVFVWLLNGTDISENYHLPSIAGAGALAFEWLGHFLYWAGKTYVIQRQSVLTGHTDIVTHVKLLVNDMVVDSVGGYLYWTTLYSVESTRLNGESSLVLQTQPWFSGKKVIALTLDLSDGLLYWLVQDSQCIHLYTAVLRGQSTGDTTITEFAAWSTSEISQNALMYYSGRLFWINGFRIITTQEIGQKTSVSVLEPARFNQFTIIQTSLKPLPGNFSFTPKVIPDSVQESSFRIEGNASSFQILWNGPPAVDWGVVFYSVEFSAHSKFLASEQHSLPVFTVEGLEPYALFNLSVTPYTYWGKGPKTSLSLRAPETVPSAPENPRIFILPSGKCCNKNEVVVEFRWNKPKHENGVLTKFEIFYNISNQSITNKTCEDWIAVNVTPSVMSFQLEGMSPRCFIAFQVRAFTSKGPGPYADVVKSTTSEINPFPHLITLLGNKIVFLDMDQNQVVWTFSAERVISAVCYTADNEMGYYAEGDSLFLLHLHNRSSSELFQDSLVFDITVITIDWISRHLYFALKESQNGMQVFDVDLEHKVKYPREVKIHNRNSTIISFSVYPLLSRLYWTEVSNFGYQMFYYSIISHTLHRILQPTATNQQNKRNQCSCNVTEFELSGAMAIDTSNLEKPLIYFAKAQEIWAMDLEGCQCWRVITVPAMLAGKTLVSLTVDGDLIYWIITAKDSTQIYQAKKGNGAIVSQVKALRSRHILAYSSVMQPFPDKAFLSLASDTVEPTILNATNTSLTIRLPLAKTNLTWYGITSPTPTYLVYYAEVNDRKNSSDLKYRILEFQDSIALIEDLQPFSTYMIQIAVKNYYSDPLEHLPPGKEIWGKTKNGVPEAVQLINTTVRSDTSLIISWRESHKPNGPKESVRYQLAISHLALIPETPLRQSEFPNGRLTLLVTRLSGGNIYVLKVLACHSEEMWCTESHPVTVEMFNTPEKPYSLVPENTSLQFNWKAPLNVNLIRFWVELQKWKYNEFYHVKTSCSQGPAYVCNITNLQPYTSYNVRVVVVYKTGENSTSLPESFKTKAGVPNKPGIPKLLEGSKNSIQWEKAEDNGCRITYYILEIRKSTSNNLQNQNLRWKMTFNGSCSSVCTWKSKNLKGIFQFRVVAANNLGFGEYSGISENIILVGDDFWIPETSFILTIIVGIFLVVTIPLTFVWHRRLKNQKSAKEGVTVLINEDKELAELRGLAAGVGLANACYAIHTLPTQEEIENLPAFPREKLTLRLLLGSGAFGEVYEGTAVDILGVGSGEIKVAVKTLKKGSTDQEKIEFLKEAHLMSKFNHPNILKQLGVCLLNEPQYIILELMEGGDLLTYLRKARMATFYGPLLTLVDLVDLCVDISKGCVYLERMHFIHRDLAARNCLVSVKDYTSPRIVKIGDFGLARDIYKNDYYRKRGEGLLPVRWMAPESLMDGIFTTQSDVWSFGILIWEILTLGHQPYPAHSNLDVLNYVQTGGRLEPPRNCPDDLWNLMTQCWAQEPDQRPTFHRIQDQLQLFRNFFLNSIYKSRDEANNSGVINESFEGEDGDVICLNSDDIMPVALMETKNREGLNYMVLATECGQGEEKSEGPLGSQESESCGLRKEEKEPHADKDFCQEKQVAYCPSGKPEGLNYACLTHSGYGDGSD
Sequence of Mitogen-activated protein kinase 1 (P28482 whole entry): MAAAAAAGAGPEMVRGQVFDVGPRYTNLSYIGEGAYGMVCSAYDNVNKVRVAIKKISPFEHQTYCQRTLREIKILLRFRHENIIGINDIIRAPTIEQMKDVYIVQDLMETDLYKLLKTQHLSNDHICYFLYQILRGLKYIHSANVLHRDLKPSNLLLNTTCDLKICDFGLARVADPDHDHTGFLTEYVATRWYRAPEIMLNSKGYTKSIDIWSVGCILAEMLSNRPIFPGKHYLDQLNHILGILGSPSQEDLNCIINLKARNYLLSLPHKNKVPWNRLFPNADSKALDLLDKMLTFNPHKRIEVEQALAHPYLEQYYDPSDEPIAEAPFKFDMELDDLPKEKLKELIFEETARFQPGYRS
Sequence of Tyrosine-protein kinase receptor UFO (P30530 whole entry): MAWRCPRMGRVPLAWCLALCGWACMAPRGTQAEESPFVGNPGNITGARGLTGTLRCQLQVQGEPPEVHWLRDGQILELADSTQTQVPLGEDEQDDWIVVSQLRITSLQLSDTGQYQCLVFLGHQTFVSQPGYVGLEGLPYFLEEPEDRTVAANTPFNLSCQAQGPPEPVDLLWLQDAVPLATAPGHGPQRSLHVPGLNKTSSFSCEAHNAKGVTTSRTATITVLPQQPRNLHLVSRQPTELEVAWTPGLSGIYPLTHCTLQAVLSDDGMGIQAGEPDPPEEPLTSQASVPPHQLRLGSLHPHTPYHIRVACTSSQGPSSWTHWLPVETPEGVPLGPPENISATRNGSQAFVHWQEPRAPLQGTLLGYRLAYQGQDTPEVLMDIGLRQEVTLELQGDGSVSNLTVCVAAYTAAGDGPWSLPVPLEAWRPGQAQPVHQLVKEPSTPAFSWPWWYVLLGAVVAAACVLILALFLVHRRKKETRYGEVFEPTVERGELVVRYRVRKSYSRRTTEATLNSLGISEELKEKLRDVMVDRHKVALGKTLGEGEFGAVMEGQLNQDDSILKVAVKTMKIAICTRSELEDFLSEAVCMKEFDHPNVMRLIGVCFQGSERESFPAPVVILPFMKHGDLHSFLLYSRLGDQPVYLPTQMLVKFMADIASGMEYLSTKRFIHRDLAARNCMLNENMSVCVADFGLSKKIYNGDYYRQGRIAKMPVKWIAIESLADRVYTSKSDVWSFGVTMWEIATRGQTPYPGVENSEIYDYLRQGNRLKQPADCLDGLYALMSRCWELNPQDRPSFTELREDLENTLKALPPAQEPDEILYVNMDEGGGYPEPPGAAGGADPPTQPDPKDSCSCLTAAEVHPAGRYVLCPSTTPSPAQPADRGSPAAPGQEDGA
Sequence of Cell division cycle 7-related protein kinase (O00311 whole entry): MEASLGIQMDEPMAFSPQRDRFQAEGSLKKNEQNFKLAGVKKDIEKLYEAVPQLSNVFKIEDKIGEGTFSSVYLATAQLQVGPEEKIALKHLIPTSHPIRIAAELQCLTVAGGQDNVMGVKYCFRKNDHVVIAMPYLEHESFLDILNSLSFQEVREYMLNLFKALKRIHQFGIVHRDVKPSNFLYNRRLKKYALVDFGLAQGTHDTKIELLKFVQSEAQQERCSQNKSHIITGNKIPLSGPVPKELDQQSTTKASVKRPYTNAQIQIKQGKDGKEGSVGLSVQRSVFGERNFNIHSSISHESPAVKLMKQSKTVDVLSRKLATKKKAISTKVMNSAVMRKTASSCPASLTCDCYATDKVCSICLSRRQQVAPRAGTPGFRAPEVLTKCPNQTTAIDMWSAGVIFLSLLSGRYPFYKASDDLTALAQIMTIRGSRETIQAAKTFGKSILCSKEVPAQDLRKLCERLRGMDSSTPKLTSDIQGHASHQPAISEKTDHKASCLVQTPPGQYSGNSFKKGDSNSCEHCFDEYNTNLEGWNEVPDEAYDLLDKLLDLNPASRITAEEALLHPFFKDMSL

Turning to `[2H]C([2H])([2H])Oc1cccc(C(C)NC(=O)c2sc(-c3ccncc3)nc2C)c1` (stereo unspecified), the Ki (as a rule, a measure of affinity in units of concentration, obtained from inhibition or displacement) in test [1] was > 3160 nM (inactive); in test [2], > 1260 nM (inactive); in [3], > 3980 nM (inactive); on LIM domain kinase 1, > 3160 nM (inactive).

Consider `Cc1n[nH]c2ccc(-c3cncc(OCC(N)Cc4ccc(Cl)c(Cl)c4)c3)cc12` (stereo unspecified), for which the Ki in test [4] was 15.8 nM (active); in test [5], > 1580 nM (inactive); in test [6], 1000 nM (active); in test [7], 398 nM (active); in test [8] it was 631 nM (active); in test [9], 1580 nM (active). In addition, the Ki in test [10] is > 1580 nM (inactive); in [11], 3160 nM (active); in test [12] it was 2000 nM (active); in test [13], 15.8 nM (active); in [14], 39.8 nM (active); in [15] it was 200 nM (active). For the same compound, the Ki in test [16] was 251 nM (active); in test [17], 794 nM (active); in [18], 50.1 nM (active); in test [19], 200 nM (active); in test [20], > 1580 nM (inactive); in [21], > 1260 nM (inactive). The Ki in [22] is 1260 nM (active); in test [23], 3160 nM (active); in test [24] it was 63.1 nM (active); in test [25], 1000 nM (active); in test [26], > 2510 nM (inactive); in [27], 12.6 nM (active). In addition, the Ki in test [28] is 158 nM (active); in [29], 3980 nM (active).

Turning to `COc1ccc(-n2c(NC(=O)c3ccco3)c(C#N)c3nc4ccccc4nc32)cc1`, the IC50 (usually the concentration needed to halve the response being measured) in [30] is > 50000 nM (not active).
